Test results reported in ChEMBL document CHEMBL1137039, “Synthesis and structure-activity relationships of uracil derived human GnRH receptor antagonists: (R)-3-[2-(2-amino)phenethyl]-1-(2,6-difluorobenzyl)-6-methyluracils containing a substituted thiophene or thiazole at C-5” (Bioorg Med Chem Lett, 2004).

Experiments:
[1] = target: T1, Gonadotropin-releasing hormone receptor (Homo sapiens, UniProt P30968); assay: Binding affinity towards cloned human Gonadotropin-releasing hormone receptor expressed in RBL cells was determined by using [125I]GnRH as radioligand; format: cell-based
T1 sequence (P30968 whole entry): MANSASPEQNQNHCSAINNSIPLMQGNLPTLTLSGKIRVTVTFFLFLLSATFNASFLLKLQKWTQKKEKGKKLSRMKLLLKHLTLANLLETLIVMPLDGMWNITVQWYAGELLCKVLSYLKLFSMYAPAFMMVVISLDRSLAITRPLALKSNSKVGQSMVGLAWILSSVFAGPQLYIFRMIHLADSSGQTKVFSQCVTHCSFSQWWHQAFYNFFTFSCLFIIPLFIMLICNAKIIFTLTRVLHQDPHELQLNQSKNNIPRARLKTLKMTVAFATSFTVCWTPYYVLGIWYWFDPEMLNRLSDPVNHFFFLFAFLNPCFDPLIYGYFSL

[2] = In vitro intrinsic clearance after incubation with human liver microsomes (HLM); format: ADME, Microsome

SMILES | Ki [1] | CLint scaled [2]
Cc1c(-c2csc(Nc3ccc([N+](=O)[O-])cc3)n2)c(=O)n(C[C@H](N)c2ccccc2)c(=O)n1Cc1c(F)cccc1F | 160 nM | –
Cc1c(-c2csc(-c3ccccc3)n2)c(=O)n(C[C@H](N)c2ccccc2)c(=O)n1Cc1c(F)cccc1F | 26 nM | –
COc1ccc(Nc2nc(-c3c(C)n(Cc4c(F)cccc4F)c(=O)n(C[C@H](N)c4ccccc4)c3=O)cs2)cc1 | 42 nM | –
Cc1c(-c2csc(-c3ccc(F)cc3)n2)c(=O)n(C[C@H](N)c2ccccc2)c(=O)n1Cc1c(F)cccc1F | 42 nM | –
Cc1c(-c2csc(-c3ccc(Cl)cc3)n2)c(=O)n(C[C@H](N)c2ccccc2)c(=O)n1Cc1c(F)cccc1F | 15 nM | 46 mL/min/kg
Cc1c(-c2csc(N3CCOCC3)n2)c(=O)n(C[C@H](N)c2ccccc2)c(=O)n1Cc1c(F)cccc1F | 1500 nM | –
Cc1ccc(-c2nc(-c3c(C)n(Cc4c(F)cccc4F)c(=O)n(C[C@H](N)c4ccccc4)c3=O)cs2)cc1 | 18 nM | 36 mL/min/kg
Cc1c(-c2cccs2)c(=O)n(C[C@H](N)c2ccccc2)c(=O)n1Cc1c(F)cccc1F | 10 nM | –
Cc1c(-c2csc(-c3ccc4c(c3)CCO4)n2)c(=O)n(C[C@H](N)c2ccccc2)c(=O)n1Cc1c(F)cccc1F | 20 nM | –
CCOC(=O)Nc1ccc(-c2nc(-c3c(C)n(Cc4c(F)cccc4F)c(=O)n(C[C@H](N)c4ccccc4)c3=O)cs2)cc1 | 7 nM | –
Cc1c(-c2csc(Nc3ccccc3)n2)c(=O)n(C[C@H](N)c2ccccc2)c(=O)n1Cc1c(F)cccc1F | 70 nM | –
COc1cccc(-c2c(C)n(Cc3c(F)cccc3F)c(=O)n(C[C@@H](C)N(C)Cc3ccccn3)c2=O)c1 | – | 1700 mL/min/kg
COc1ccccc1Nc1nc(-c2c(C)n(Cc3c(F)cccc3F)c(=O)n(C[C@H](N)c3ccccc3)c2=O)cs1 | 130 nM | –
Cc1ccccc1Nc1nc(-c2c(C)n(Cc3c(F)cccc3F)c(=O)n(C[C@H](N)c3ccccc3)c2=O)cs1 | 210 nM | –
Cc1c(-c2ccc(Cl)cc2)c(=O)n(C[C@H](N)c2ccccc2)c(=O)n1Cc1c(F)cccc1F | 14 nM | –
Cc1nc(-c2c(C)n(Cc3c(F)cccc3F)c(=O)n(C[C@H](N)c3ccccc3)c2=O)cs1 | 120 nM | –

SMILES | Ki [1] | CLint scaled [2]
Cc1ccc(Nc2nc(-c3c(C)n(Cc4c(F)cccc4F)c(=O)n(C[C@H](N)c4ccccc4)c3=O)cs2)cc1 | 49 nM | –
Cc1c(-c2ccc(Cl)s2)c(=O)n(C[C@H](N)c2ccccc2)c(=O)n1Cc1c(F)cccc1F | 2 nM | –
COc1ccc(Nc2nc(-c3c(C)n(Cc4c(F)cccc4F)c(=O)n(C[C@H](N)c4ccccc4)c3=O)cs2)cc1OC | 33 nM | –
Cc1c(-c2csc(Cc3ccccc3)n2)c(=O)n(C[C@H](N)c2ccccc2)c(=O)n1Cc1c(F)cccc1F | 9 nM | –
CCNc1nc(-c2c(C)n(Cc3c(F)cccc3F)c(=O)n(C[C@H](N)c3ccccc3)c2=O)cs1 | 270 nM | –
Cc1ccc(Nc2nc(-c3c(C)n(Cc4c(F)cccc4F)c(=O)n(C[C@H](N)c4ccccc4)c3=O)cs2)c(C)c1 | 130 nM | –
Cc1c(-c2csc(N(C)c3ccccc3)n2)c(=O)n(C[C@H](N)c2ccccc2)c(=O)n1Cc1c(F)cccc1F | 34 nM | –
Cc1c(-c2csc(-c3cccc(C(F)(F)F)c3)n2)c(=O)n(C[C@H](N)c2ccccc2)c(=O)n1Cc1c(F)cccc1F | 150 nM | –
Cc1ccc(-c2c(C)n(Cc3c(F)cccc3F)c(=O)n(C[C@H](N)c3ccccc3)c2=O)s1 | 3 nM | –
Cc1c(-c2csc(-c3ccc(C(C)(C)C)cc3)n2)c(=O)n(C[C@H](N)c2ccccc2)c(=O)n1Cc1c(F)cccc1F | 500 nM | –
Cc1c(-c2csc(-c3ccccc3Cl)n2)c(=O)n(C[C@H](N)c2ccccc2)c(=O)n1Cc1c(F)cccc1F | 30 nM | –
Cc1c(-c2csc(NCc3ccccc3)n2)c(=O)n(C[C@H](N)c2ccccc2)c(=O)n1Cc1c(F)cccc1F | 35 nM | –
Cc1c(-c2csc(N)n2)c(=O)n(C[C@H](N)c2ccccc2)c(=O)n1Cc1c(F)cccc1F | 3000 nM | –
Cc1c(-c2csc(-c3ccc(C(F)(F)F)cc3)n2)c(=O)n(C[C@H](N)c2ccccc2)c(=O)n1Cc1c(F)cccc1F | 47 nM | –
Cc1ccc(-c2nc(-c3c(C)n(Cc4c(F)cccc4F)c(=O)n(C[C@H](N)c4ccccc4)c3=O)cs2)cc1F | 49 nM | –
